# Measured values as given in ChEMBL document CHEMBL2163268, “Structure-based design of a novel series of potent, selective inhibitors of the class I phosphatidylinositol 3-kinases” (J Med Chem, 2012).
# Experiments:
# in vitro = conditions: rat, liver microsomes
# [1] = target: Serine/threonine-protein kinase B-raf (Homo sapiens, UniProt P15056, V600E)
# [2] = target: T1, Phosphatidylinositol 4,5-bisphosphate 3-kinase catalytic subunit delta isoform (Homo sapiens, UniProt O00329); test: biochemical
# T1 sequence (O00329 whole entry): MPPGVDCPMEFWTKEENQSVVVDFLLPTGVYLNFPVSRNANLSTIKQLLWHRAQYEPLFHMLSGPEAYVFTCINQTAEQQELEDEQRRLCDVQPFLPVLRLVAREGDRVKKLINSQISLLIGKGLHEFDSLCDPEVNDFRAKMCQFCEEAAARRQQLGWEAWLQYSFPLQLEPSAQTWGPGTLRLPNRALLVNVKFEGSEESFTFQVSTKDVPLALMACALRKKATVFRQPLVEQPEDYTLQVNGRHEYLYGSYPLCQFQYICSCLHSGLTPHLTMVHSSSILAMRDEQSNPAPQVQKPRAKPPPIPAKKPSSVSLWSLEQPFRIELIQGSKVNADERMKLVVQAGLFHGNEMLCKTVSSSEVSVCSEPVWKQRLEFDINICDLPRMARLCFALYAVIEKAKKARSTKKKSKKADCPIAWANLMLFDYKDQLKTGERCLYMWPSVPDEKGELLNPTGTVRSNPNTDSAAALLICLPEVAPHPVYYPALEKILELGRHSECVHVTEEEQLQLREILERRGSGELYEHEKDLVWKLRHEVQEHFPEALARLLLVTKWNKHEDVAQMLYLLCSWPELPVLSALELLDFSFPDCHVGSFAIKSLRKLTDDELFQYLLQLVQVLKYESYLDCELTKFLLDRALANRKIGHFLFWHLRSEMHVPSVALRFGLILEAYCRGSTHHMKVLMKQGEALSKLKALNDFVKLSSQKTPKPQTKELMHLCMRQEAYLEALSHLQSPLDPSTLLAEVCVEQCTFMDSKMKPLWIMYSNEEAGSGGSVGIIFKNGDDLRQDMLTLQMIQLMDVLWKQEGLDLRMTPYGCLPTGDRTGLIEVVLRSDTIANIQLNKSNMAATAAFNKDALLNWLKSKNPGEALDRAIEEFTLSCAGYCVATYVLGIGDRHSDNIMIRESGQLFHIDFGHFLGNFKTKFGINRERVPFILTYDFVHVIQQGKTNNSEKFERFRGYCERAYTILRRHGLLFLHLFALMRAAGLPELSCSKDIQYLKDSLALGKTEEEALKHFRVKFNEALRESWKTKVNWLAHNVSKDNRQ
# [3] = target: Phosphatidylinositol 4,5-bisphosphate 3-kinase catalytic subunit gamma isoform (Homo sapiens, UniProt P48736); test: biochemical
# [4] = target: Phosphatidylinositol 4,5-bisphosphate 3-kinase catalytic subunit alpha isoform (Homo sapiens, UniProt P42336); test: biochemical
# [5] = target: Phosphatidylinositol 4,5-bisphosphate 3-kinase catalytic subunit beta isoform (Homo sapiens, UniProt P42338); test: biochemical
# [6] = target: Serine/threonine-protein kinase mTOR (Homo sapiens, UniProt P42345)
# Phosphatidylinositol 4,5-bisphosphate 3-kinase catalytic subunit gamma isoform, sequence (P48736 whole entry, canonical isoform): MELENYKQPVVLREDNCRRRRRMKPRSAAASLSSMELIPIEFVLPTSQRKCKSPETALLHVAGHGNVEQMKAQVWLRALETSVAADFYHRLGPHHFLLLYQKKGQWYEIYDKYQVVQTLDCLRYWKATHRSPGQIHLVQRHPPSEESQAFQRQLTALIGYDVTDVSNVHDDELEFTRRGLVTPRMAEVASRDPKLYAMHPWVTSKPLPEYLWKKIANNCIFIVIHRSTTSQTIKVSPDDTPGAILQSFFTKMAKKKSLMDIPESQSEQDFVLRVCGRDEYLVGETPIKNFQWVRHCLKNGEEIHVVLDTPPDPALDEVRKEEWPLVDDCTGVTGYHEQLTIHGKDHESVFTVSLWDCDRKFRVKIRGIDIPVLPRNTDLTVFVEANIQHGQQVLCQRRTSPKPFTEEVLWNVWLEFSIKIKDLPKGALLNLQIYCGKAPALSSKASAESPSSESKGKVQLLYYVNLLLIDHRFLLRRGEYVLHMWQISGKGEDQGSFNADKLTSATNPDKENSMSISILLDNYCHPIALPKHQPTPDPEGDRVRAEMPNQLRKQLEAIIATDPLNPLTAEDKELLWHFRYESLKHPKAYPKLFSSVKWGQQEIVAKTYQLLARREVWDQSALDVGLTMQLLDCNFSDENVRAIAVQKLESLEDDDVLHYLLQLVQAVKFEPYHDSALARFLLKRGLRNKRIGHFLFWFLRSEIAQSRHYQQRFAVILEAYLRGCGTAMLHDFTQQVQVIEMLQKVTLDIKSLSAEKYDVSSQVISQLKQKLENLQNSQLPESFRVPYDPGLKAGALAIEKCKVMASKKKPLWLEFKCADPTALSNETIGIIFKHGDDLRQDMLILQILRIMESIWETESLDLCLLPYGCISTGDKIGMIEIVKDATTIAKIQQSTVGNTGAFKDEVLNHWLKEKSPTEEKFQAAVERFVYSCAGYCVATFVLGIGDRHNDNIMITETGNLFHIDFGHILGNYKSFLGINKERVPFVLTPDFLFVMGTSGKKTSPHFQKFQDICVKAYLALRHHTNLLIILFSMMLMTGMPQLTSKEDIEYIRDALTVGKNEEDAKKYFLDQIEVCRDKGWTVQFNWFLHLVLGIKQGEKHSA
# Serine/threonine-protein kinase B-raf, sequence (P15056 2-766 V600E limits assumed): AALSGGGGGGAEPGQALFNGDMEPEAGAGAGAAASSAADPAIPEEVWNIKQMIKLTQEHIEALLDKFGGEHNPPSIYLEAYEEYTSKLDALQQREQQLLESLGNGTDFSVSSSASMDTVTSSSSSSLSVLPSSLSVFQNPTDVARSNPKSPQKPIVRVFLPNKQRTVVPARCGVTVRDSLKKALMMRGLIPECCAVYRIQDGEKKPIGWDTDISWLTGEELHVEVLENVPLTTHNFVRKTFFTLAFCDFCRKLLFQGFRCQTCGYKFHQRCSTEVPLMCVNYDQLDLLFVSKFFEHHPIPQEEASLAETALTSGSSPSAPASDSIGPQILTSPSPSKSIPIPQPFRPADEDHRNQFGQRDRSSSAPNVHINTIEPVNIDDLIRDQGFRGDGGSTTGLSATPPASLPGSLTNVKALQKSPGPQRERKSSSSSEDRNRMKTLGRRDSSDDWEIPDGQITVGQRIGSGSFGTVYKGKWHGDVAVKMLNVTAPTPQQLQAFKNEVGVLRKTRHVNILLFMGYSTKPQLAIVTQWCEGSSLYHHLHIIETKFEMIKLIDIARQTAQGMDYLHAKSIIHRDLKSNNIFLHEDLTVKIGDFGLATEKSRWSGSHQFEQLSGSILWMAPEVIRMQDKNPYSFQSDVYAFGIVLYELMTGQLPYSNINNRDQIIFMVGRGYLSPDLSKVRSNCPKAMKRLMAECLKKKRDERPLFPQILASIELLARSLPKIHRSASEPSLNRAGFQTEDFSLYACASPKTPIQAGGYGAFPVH
# Phosphatidylinositol 4,5-bisphosphate 3-kinase catalytic subunit beta isoform, sequence (P42338 whole entry, canonical isoform): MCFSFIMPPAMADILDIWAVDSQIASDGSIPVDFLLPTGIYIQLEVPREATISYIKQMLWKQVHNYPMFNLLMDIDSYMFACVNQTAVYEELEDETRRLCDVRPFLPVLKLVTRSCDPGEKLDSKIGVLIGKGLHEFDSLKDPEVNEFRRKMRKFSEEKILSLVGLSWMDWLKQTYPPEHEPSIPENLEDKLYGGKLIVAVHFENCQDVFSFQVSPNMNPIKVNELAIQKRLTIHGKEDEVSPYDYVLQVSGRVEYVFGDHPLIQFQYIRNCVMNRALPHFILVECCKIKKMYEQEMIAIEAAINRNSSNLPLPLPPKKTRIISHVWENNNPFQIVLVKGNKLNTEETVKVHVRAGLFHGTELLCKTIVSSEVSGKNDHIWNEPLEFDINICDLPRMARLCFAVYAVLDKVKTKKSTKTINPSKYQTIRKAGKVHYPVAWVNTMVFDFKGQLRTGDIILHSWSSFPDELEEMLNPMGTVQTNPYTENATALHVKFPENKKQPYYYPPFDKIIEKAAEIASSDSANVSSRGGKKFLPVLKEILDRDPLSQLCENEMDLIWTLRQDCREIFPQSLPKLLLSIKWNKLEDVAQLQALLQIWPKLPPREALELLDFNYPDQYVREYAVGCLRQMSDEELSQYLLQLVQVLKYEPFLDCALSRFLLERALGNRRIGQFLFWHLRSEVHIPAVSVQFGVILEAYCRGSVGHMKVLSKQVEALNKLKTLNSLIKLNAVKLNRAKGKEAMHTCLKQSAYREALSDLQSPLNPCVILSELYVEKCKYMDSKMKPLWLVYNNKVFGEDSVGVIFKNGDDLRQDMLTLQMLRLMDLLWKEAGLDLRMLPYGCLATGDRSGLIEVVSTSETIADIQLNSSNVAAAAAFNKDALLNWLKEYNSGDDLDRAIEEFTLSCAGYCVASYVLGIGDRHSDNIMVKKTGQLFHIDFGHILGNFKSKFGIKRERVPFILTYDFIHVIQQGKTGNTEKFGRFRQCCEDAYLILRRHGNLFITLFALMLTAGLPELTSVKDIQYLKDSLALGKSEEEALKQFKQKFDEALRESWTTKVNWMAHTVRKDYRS
# Phosphatidylinositol 4,5-bisphosphate 3-kinase catalytic subunit alpha isoform, sequence (P42336 whole entry, canonical isoform): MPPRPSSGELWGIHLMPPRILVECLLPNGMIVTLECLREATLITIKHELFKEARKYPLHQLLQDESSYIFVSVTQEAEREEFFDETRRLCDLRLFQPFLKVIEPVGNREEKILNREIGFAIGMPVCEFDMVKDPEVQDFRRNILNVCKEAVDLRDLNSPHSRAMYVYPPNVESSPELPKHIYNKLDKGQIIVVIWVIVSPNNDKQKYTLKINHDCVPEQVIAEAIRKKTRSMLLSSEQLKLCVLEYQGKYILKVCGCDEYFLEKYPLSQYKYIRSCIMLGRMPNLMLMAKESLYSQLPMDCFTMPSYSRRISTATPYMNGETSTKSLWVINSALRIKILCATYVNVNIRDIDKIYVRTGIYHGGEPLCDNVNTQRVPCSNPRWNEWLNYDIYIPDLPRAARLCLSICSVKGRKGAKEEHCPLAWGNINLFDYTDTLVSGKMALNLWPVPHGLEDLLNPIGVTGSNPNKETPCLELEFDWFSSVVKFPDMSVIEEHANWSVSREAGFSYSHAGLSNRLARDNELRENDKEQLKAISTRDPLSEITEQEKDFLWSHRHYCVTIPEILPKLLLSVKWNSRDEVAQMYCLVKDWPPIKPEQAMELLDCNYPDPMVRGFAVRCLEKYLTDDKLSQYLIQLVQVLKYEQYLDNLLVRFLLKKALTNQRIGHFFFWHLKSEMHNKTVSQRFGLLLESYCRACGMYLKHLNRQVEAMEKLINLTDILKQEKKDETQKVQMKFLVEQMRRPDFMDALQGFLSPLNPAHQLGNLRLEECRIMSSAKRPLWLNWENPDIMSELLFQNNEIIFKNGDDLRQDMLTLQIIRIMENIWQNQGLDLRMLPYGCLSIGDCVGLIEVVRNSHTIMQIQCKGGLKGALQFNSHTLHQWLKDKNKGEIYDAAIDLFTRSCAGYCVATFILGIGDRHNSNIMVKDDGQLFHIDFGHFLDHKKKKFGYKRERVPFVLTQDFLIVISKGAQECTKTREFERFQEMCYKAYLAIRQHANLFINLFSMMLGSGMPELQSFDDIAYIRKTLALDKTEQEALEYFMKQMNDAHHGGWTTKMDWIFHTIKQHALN
SMILES,microsomal CLint (in vitro) [µL/min/mg],IC50 [1] [nM],Ki [2] [nM],Ki [3] [nM],Ki [4] [nM],Ki [5] [nM],IC50 [6] [nM]
COc1ccc(Nc2ncc(CN3CCCN(S(C)(=O)=O)CC3)cc2-c2nc(C)nc(N)n2)cn1,242,–,21,46,33,61,> 10000
COc1ccc(Nc2ncc(Cc3ccccc3)cc2-c2nc(C)nc(N)n2)cn1,62,–,15,11,59,48,–
COc1ccc(Nc2ncc(CN3CCCCC3)cc2-c2nc(C)nc(N)n2)cn1,51,–,19,80,–,11,–
COc1ccc(Nc2ncc(CN3CCOCC3)cc2-c2nc(C)nc(N)n2)cn1,31,–,18,17,–,7,–
COc1ccc(Nc2ncc(CN3CC[C@@H](CO)C3)cc2-c2nc(C)nc(N)n2)cn1,20,–,51,100,–,59,–
COc1ccc(Nc2ncc(CN3CCNCC3)cc2-c2nc(C)nc(N)n2)cn1,35,–,27,200,–,17,–
COc1ccc(Nc2ncc(CN3CCN(C)CC3)cc2-c2nc(C)nc(N)n2)cn1,48,–,34,130,–,44,–
COC(=O)N1CCN(Cc2cnc(Nc3ccc(OC)nc3)c(-c3nc(C)nc(N)n3)c2)CC1,20,–,6,18,94,18,3700
COc1ccc(Nc2ncc(CN3CCN(C(=O)N(C)C)CC3)cc2-c2nc(C)nc(N)n2)cn1,17,–,3,8,84,16,1400
COc1ccc(Nc2ncc(CN3CCN(S(=O)(=O)N(C)C)CC3)cc2-c2nc(C)nc(N)n2)cn1,73,–,6,9,–,7,–
COc1ccc(Nc2nccnc2-c2cc(N)nc(C)n2)cn1,72,> 1000,130,58,120,130,–
COc1ccc(Nc2ncc(Br)cc2-c2nc(C)nc(N)n2)cn1,111,–,92,22,–,75,–
COc1ccc(Nc2ncc(CO)cc2-c2nc(C)nc(N)n2)cn1,43,–,20,24,–,56,–
COCc1cnc(Nc2ccc(OC)nc2)c(-c2nc(C)nc(N)n2)c1,58,–,10,9,49,20,> 10000
COCCNCc1cnc(Nc2ccc(OC)nc2)c(-c2nc(C)nc(N)n2)c1,31,–,30,99,–,67,–
COc1ccc(Nc2ncc(N3CCOCC3)cc2-c2nc(C)nc(N)n2)cn1,67,–,4,4,22,9,> 10000
COc1ccc(Nc2ncc(C3=CCOCC3)cc2-c2nc(C)nc(N)n2)cn1,83,–,2,2,–,3,–
COc1ccc(Nc2ncc(N3CCN(C)CC3)cc2-c2nc(C)nc(N)n2)cn1,23,–,16,21,39,7,1400
COc1ccc(Nc2ncc(CN3CCC3)cc2-c2nc(C)nc(N)n2)cn1,37,–,50,140,–,22,–
Cc1nc(-c2cccnc2Nc2cccc3[nH]ncc23)c2nc[nH]c2n1,44,> 1000,350,12,–,–,–
Cc1nc(-c2cccnc2Nc2cccc3[nH]ccc23)c2[nH]cnc2n1,90,–,360,23,–,130,560
COc1ccc(Nc2ncccc2-c2nc(C)nc3nc[nH]c23)cn1,68,> 1000,–,12,–,45,–
c1cnc(Nc2cccc3n[nH]cc23)c(-c2ncnc3nc[nH]c23)c1,115,–,> 10000,–,> 10000,9700,> 10000
COc1ccc(Nc2cnccc2-c2nc(C)nc(N)n2)cn1,133,–,240,690,620,320,–
COc1ccc(Nc2ncncc2-c2nc(C)nc(N)n2)cn1,110,> 1000,62,59,120,81,–
COc1ccc(Nc2nccnc2-c2nc(C)nc(N)n2)cn1,41,> 1000,300,90,520,740,–
Cc1nc(N)nc(-c2cccnc2Nc2cccc(O)c2)n1,80,> 1000,9,–,–,3,–

# Other lines, results leading:
microsomal CLint (in vitro) [µL/min/mg],IC50 [1] [nM],Ki [2] [nM],Ki [3] [nM],Ki [4] [nM],Ki [5] [nM],IC50 [6] [nM],SMILES
394,1200,11,69,16,43,–,Cc1nc(NCC#N)nc(-n2c(Nc3cccc(O)c3)nc3ccccc32)n1
21,–,13,30,73,13,> 10000,COc1ccc(Nc2ncc(CN3CCS(=O)(=O)CC3)cc2-c2nc(C)nc(N)n2)cn1
37,–,60,210,–,65,–,COc1ccc(Nc2ncc(CN3CCCC3)cc2-c2nc(C)nc(N)n2)cn1
23,–,63,110,–,41,–,COc1ccc(Nc2ncc(CN3CCC(O)CC3)cc2-c2nc(C)nc(N)n2)cn1
58,–,39,40,290,38,–,COc1ccc(Nc2ncc(Cl)cc2-c2nc(C)nc(N)n2)cn1
243,–,110,54,–,86,> 10000,COc1ccc(Nc2ncc(C)cc2-c2nc(C)nc(N)n2)cn1
86,–,7,9,–,15,–,COc1cnc(Nc2ccc(OC)nc2)c(-c2nc(C)nc(N)n2)c1
25,–,7,–,–,89,–,COc1ccc(Nc2ncc(-c3ccc(C)nc3)cc2-c2nc(C)nc(N)n2)cn1
24,–,6,6,–,6,–,COc1ccc(Nc2ncc(-c3cnn(C)c3)cc2-c2nc(C)nc(N)n2)cn1
109,–,5700,1100,8300,> 10000,–,COc1ccc(Nc2ncccc2-c2ncnc3nc[nH]c23)cn1
190,> 1000,310,380,640,580,–,COc1ccc(Nc2ccccc2-c2nc(C)nc(N)n2)cn1
96,–,910,480,1300,610,> 10000,COc1ccc(Nc2cccnc2-c2nc(C)nc(N)n2)cn1
51,> 1000,37,29,–,23,–,COc1ccc(Nc2ncccc2-c2nc(C)nc(N)n2)cn1
62,> 1000,56,51,28,35,360,Cc1nc(N)cc(-c2cccnc2Nc2cccc(O)c2)n1
23,–,3,5,–,5,–,COc1ccc(Nc2ncc(CN3CCC(S(C)(=O)=O)C3)cc2-c2nc(C)nc(N)n2)cn1 (racemic)
